# Test results taken from the supplement of paper PMC9780213.
# Tests used:
# Settings in all cases: treatment time: 24 h
# U2OS-LMNB1-TUBA1B-ACTB = experiment: cell count relative to DMSO control (panel C1, DRAQ5/ER stain) (fraction of control); higher = more cells (less toxicity)
# Method: (§1)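 U2OS-derived cells in 384-well plates were treated for 24 h with a 7-point 2-fold dilution series (top dose 20 µM for most compounds; final max DMSO 1%), then fixed, stained in four marker panels and imaged on a Cellomics ArrayScan. Cell count per treatment (three replicate plates merged) is given as a fraction of DMSO control. Panel A used parental U2OS, panel B U2OS-mOrange2-Peroxisome, panel C1 U2OS-LMNB1-TUBA1B-ACTB (DRAQ5 nuclei).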
# U2OS-mOrange2-Peroxisome = experiment: cell count relative to DMSO control (panel B, lysosome/peroxisome/lipid stain) (fraction of control); higher = more cells (less toxicity)
# Method: as §1
# U2OS = experiment: cell count relative to DMSO control (panel A, nuclei/RNA/PMG/mitochondria stain) (fraction of control); higher = more cells (less toxicity)
# Method: as §1
Compound,cell count (U2OS-LMNB1-TUBA1B-ACTB; 0.3125 µM),cell count (U2OS-LMNB1-TUBA1B-ACTB; 0.625 µM),cell count (U2OS-LMNB1-TUBA1B-ACTB; 1.25 µM),cell count (U2OS-LMNB1-TUBA1B-ACTB; 2.5 µM),cell count (U2OS-LMNB1-TUBA1B-ACTB; 5 µM),cell count (U2OS-LMNB1-TUBA1B-ACTB; 10 µM),cell count (U2OS-LMNB1-TUBA1B-ACTB; 20 µM),cell count (U2OS-mOrange2-Peroxisome; 0.3125 µM),cell count (U2OS-mOrange2-Peroxisome; 0.625 µM),cell count (U2OS-mOrange2-Peroxisome; 1.25 µM),cell count (U2OS-mOrange2-Peroxisome; 2.5 µM),cell count (U2OS-mOrange2-Peroxisome; 5 µM),cell count (U2OS-mOrange2-Peroxisome; 10 µM),cell count (U2OS-mOrange2-Peroxisome; 20 µM),cell count (U2OS; 0.3125 µM),cell count (U2OS; 0.625 µM),cell count (U2OS; 1.25 µM),cell count (U2OS; 2.5 µM),cell count (U2OS; 5 µM),cell count (U2OS; 10 µM),cell count (U2OS; 20 µM),cell count (U2OS-LMNB1-TUBA1B-ACTB; 0.15625 µM),cell count (U2OS-mOrange2-Peroxisome; 0.15625 µM),cell count (U2OS; 0.15625 µM),cell count (U2OS-LMNB1-TUBA1B-ACTB; 0.07812 µM),cell count (U2OS-mOrange2-Peroxisome; 0.07812 µM),cell count (U2OS; 0.07812 µM)
O=NN(CCCl)C(=O)NC1CCCCC1 [lomustine],0.906,0.972,0.927,0.932,1.02,0.856,0.73,0.854,1.08,0.93,0.952,1.22,1.12,0.879,0.856,0.819,0.952,0.895,1.02,0.818,0.7,,,,,,
CCCC[C@H]1C(=O)O[C@H](C)[C@H](NC(=O)c2cccc(NC=O)c2O)C(=O)O[C@@H](C)[C@@H]1OC(=O)CC(C)C [antimycin-a],1.05,0.943,0.716,0.66,0.626,0.54,,0.945,0.858,0.811,0.724,0.66,0.739,,1.02,0.799,0.644,0.587,0.497,0.507,,1.01,1.04,1.04,,,
COC(=O)Nc1nc2ccc(C(=O)c3cccs3)cc2[nH]1 [nocodazole],1.12,0.993,1.01,0.999,0.737,0.414,0.369,0.837,0.656,0.775,0.628,0.411,0.425,0.381,1.06,0.962,1.03,0.792,0.692,0.317,0.196,,,,,,
OC(CS)C(O)CS (stereo not given) [DTT],0.887,0.811,0.809,0.764,0.806,0.477,0.457,0.732,0.714,0.826,0.911,0.773,0.0574,0.0584,0.863,0.785,0.733,0.765,0.729,0.201,0.11,,,,,,
CC[C@H]1/C=C/C=C/C[C@@H](C)[C@H](O)[C@@](C)(O)C(=O)[C@@H](C)[C@H](O)[C@@H](C)C(=O)[C@@H](C)[C@H](O)[C@@H](C)/C=C/C(=O)O[C@@H]2[C@H](C)[C@H](CC1)O[C@]1(CC[C@H](C)[C@H](C[C@@H](C)O)O1)[C@H]2C [oligomycin-a],1.03,1.07,1,1.03,1.09,1.05,,0.906,0.944,0.895,0.858,1.21,1.09,,0.986,0.995,1.04,0.938,0.99,0.925,,0.621,0.52,0.555,,,
NS(=O)(=O)C#Cc1ccccc1 [pifithrin-mu],1.09,1.06,1.08,1.07,1.1,0.97,,1.02,0.981,0.941,1.08,1.02,1.13,,1.07,1.11,1.05,0.983,0.953,1.05,,1.14,1.01,1.06,,,
CN1CCC(c2c(O)cc(O)c3c(=O)cc(-c4ccccc4Cl)oc23)[C@@H](O)C1 (stereo not given in full) [alvocidib],0.864,0.789,0.569,0.314,0.253,0.239,0.257,1.61,1.52,1.18,1.24,1.29,0.687,0.372,0.804,0.575,0.44,0.221,0.142,0.14,0.153,,,,,,
Cc1c2oc3c(C)ccc(C(=O)N[C@@H]4C(=O)N[C@H](C(C)C)C(=O)N5CCC[C@H]5C(=O)N(C)CC(=O)N(C)[C@@H](C(C)C)C(=O)O[C@@H]4C)c3nc-2c(C(=O)N[C@@H]2C(=O)N[C@H](C(C)C)C(=O)N3CCC[C@H]3C(=O)N(C)CC(=O)N(C)[C@@H](C(C)C)C(=O)O[C@@H]2C)c(N)c1=O [dactinomycin],1.05,1.09,1,0.993,0.824,0.661,0.418,1.08,1.07,1.01,0.743,0.663,0.243,0.139,0.928,0.89,0.807,0.741,0.73,0.381,0.229,,,,,,
COc1cccc2c1C(=O)c1c(O)c3c(c(O)c1C2=O)C[C@@](O)(C(C)=O)C[C@@H]3O[C@H]1C[C@H](N)[C@H](O)[C@H](C)O1 [daunorubicin],1.02,0.912,0.645,0.613,0.472,,,0.527,0.605,0.618,0.398,0.152,,,0.96,0.829,0.457,0.376,0.183,,,0.99,0.529,0.928,0.953,0.537,0.92
O=C(CCCN1CCC(O)(c2ccc(Cl)cc2)CC1)c1ccc(F)cc1 [haloperidol],1.03,1.05,1.03,0.979,1.05,1.11,1.05,1.19,1.13,1.11,0.88,1.29,1.16,1.32,1.02,0.985,0.893,0.939,0.979,1,0.956,,,,,,
Cc1c(N)nc([C@H](CC(N)=O)NC[C@H](N)C(N)=O)nc1C(=O)N[C@H](C(=O)N[C@H](C)[C@@H](O)[C@H](C)C(=O)N[C@H](C(=O)NCCc1nc(-c2nc(C(=O)NCCC[S+](C)C)cs2)cs1)[C@@H](C)O)[C@@H](O[C@@H]1O[C@@H](CO)[C@@H](O)[C@H](O)[C@@H]1O[C@H]1O[C@H](CO)[C@@H](O)[C@H](OC(N)=O)[C@@H]1O)c1c[nH]cn1 [bleomycin],0.845,0.893,0.934,1.02,0.88,0.909,0.887,1.36,1.16,1.31,1.26,1.32,1.25,1.34,0.746,0.849,0.8,0.933,0.701,0.817,0.794,,,,,,
O=C(Oc1cc(S(=O)(=O)c2ccccc2)ccc1[N+](=O)[O-])c1ccc(Cl)cc1,1.05,1.06,0.969,0.953,0.983,1.13,0.989,0.726,0.838,0.873,1.02,1.08,1.26,0.846,1.05,1.08,1.11,1.06,0.997,0.944,0.966,,,,,,
Cc1c(Cl)cccc1Nc1ccccc1C(=O)O [tolfenamic-acid],1.01,1.1,1.11,1.07,0.998,1.12,1.03,0.753,0.959,0.883,0.953,0.933,1.01,1.22,0.992,1.06,1.03,1.1,1.04,1.03,0.963,,,,,,
COc1ccc(C[C@H]2NC[C@H](O)[C@H]2OC(C)=O)cc1 [anisomycin],0.84,0.602,0.226,0.0722,0.0685,0.0611,0.166,0.678,0.277,0.0792,0.0323,0.133,0.195,0.1,0.794,0.502,0.186,0.0402,0.0213,0.0357,0.053,,,,,,
CN(Cc1cnc2nc(N)nc(N)c2n1)c1ccc(C(=O)N[C@@H](CCC(=O)O)C(=O)O)cc1 [methotrexate],0.838,0.851,0.728,0.663,0.497,,,0.663,0.807,0.808,0.78,0.748,,,0.705,0.696,0.691,0.689,0.561,,,0.8,0.757,0.699,0.922,0.761,0.782
O=C(CCCCCCC(=O)Nc1ccccc1)NO [vorinostat],1.1,1.02,0.995,0.911,1.01,0.794,0.208,0.929,1.04,0.893,1.13,0.926,0.812,0.292,1.12,1.1,0.993,1.03,1.02,0.899,0.304,,,,,,
Nc1c2ccccc2nc2ccccc12 [9-aminoacridine],1.11,1.05,1.12,0.826,0.239,0.0589,0.0515,1.12,0.733,0.6,0.346,0.104,0.0699,0.0813,1.08,1.12,1,0.751,0.383,0.226,0.254,,,,,,
CCCCCCCC(=O)N[C@H](CN1CCCC1)[C@H](O)c1ccc2c(c1)OCCO2 [eliglustat],1.08,1.13,1.13,1.08,1.09,1.07,1.02,1.25,0.795,0.804,0.767,0.889,0.945,1.12,0.927,0.977,0.988,1.01,1.1,1.01,0.973,,,,,,
O=C1c2c(O)ccc(O)c2C(=O)c2c(NCCNCCO)ccc(NCCNCCO)c21 [mitoxantrone],0.532,0.465,0.434,0.403,0.371,,,0.648,0.642,0.605,0.544,0.548,,,0.662,0.503,0.411,0.455,0.447,,,0.693,0.953,0.887,1.05,1.16,0.956
NCCCCC(N)C(=O)NC(CCCCN)C(=O)NC(Cc1c[nH]c2ccccc12)C(=O)NC(Cc1c[nH]c2ccccc12)C(=O)NC(CCCCN)C(=O)NC(CCCCN)C(=O)NC(Cc1c[nH]c2ccccc12)C(=O)NC(C(=O)NC(CCCCN)C(N)=O)C(c1ccccc1)c1ccccc1 (stereo not given) [LTX-315],1.13,1.1,1.08,1.05,0.842,0.47,0.0329,0.785,0.756,0.817,0.766,0.885,0.508,0.0593,1.04,0.967,1.09,0.948,0.657,0.15,0.0373,,,,,,
N#C[C@H](O[C@@H]1O[C@H](CO[C@@H]2O[C@H](CO)[C@@H](O)[C@H](O)[C@H]2O)[C@@H](O)[C@H](O)[C@H]1O)c1ccccc1 [amygdalin],1.05,1.15,0.992,1.01,0.959,1.1,0.956,0.877,0.848,0.731,0.983,0.805,0.948,0.953,1.09,1.06,1.07,1.02,0.921,1.05,0.974,,,,,,
C[C@H]1O[C@@H](O[C@H]2[C@@H](O)C[C@H](O[C@H]3[C@@H](O)C[C@H](O[C@H]4CC[C@@]5(C)[C@H](CC[C@@H]6[C@@H]5CC[C@]5(C)[C@@H](C7=CC(=O)OC7)CC[C@]65O)C4)O[C@@H]3C)O[C@@H]2C)C[C@H](O)[C@@H]1O [digitoxin],1.03,1.05,1.02,1.11,1.12,,,0.888,1.04,1.01,1.09,1.02,,,1.04,1.11,1.13,1.09,1.11,,,1.04,1.23,1.02,0.905,1.24,1.07
O=C(/C=C\n1cnc(-c2cc(C(F)(F)F)cc(C(F)(F)F)c2)n1)NNc1cnccn1 [selinexor],1.1,1.06,1.12,1.15,1.07,0.834,0.693,0.905,0.657,0.758,0.705,0.676,0.598,0.484,1.01,0.994,1.03,0.971,0.9,0.779,0.502,,,,,,
CCCC[C@@H](C=O)NC(=O)[C@H](CC(C)C)NC(=O)[C@H](CC(C)C)NC(C)=O [MG-101],1.15,1.07,1.08,0.727,0.443,0.173,0.0712,0.692,0.642,0.697,0.608,0.346,0.242,0.16,0.986,0.975,0.773,0.429,0.198,0.14,0.0899,,,,,,
CO[C@H]1C[C@@H]2CC[C@@H](C)[C@@](O)(O2)C(=O)C(=O)N2CCCC[C@H]2C(=O)O[C@H]([C@H](C)C[C@@H]2CC[C@@H](O)[C@H](OC)C2)CC(=O)[C@H](C)/C=C(\C)[C@@H](O)[C@@H](OC)C(=O)[C@H](C)C[C@H](C)/C=C/C=C/C=C/1C [sirolimus],1.12,0.947,1.07,0.944,0.94,0.711,0.745,0.81,0.644,0.677,0.521,0.453,0.451,0.372,1.08,0.8,0.967,1.05,0.947,0.766,0.755,,,,,,
